Test results from US20110206638A1, “COMPOSITIONS AND METHODS FOR REDUCING THE MUTATION RATE OF VIRUSES” (priority 2010, published 2011).

Experiments:
[1] = test system: subgenomic HCV replicon of genotype 1b (Con1), NS5A region; assay: NS5A sequencing of HCV RNA, mutation frequency in SgPC2 Con1 replicon cells (Example 1); assay type: cell-based, Hepatitis C virus; conditions: for dn/ds ratio: control 0.33; for Percentage of sites showing positive selection: control 2.36; for mutation frequency, nucleotide changes per site / amino acid changes per codon: SgPC2 Con1 replicon cells, once daily for 48 hrs, ethanol 0.5%; for mutation frequency, nucleotide changes per site: normalized by T7 baseline
Protocol: Huh7 cell clones (SgPC2 cells) supporting continuous replication of a subgenomic HCV replicon of genotype 1b (Con1 sequence) were used (Choi J. et al. (2004) Hepatology 39:81-89; Blight K J et al. (2000) Science 290:1972). The subgenomic replicons support HCV RNA replication but no virus is formed. The in vitro transcription, transfection of HCV RNA, and Huh7 human hepatoma cell culture were performed by methods known in the art and as previously described (Choi J. et al. (2004) Hepatology 39:81-89; Blight K J et al. (2000) Science 290:1972).
After various treatments, total RNAs were collected using Trizol (Invitrogen). Then, the NS5A region (nt. 4612 to 6013 of Con1 replicon) was reverse transcribed/amplified with AccuScript High Fidelity RT-PCR System (Stratagene). The cDNAs were cloned into pUC19 and sequenced at the Joint Genome Institute (Livermore, Calif.). Sequences were aligned against Con1(S11791) sequence, using BioEdit/MEGA 4.0 Molecular Evolutionary Genetics Analysis software.
To test whether ethanol can increase the mutation rate of HCV, SgPC2 Con1 replicon cells that support genotype 1b subgenomic HCV RNA replication (FIG. 2B) were incubated with ethanol (0.5%), BSO (amplifies the effects of endogenous ROS/RNS by decreasing the level of glutathione in the cell), H2O2 (100 μM), or acetaldehyde (10 μM) once daily for 48 hrs. Then, the RNAs were collected, and the NS5A region (nt. 4612 to 6013 of Con1 replicon) was reverse transcribed/amplified with AccuScript High Fidelity RT-PCR System (Stratagene). Then, the cDNAs were cloned into pUC19 and sequenced at the Joint Genome Institute (Livermore, Calif.). T7 HCV RNA transcript, initially used to transfect the Con1 cells, was also sequenced to assess the basal level of RNA heterogeneity, such as due to any heterogeneity of the DNA template prior to in vitro transcription as well as any errors generated during transcription and RT-PCR cloning. The experiments were focused on NS5A because of its moderate level of diversity and its role in viral replication as well as interferon resistance. Sequences were aligned against Con1(S1179I) sequence, using BioEdit/MEGA 4.0 Molecular Evolutionary Genetics Analysis software.

[2] = test system: Huh7 cells; assay type: cell-based, human
Protocol: Total RNA was isolated using Trizol (Invitrogen) and analyzed for 8-OH-guanosine (8-OH-G) by northwestern, as described (Shan X et al. (2003) J. Neurosci. 23:4913-4921). Briefly, RNA was size-fractionated by agarose gel electrophoresis, transferred to a nylon membrane, blocked with 1% BSA, incubated sequentially with monoclonal anti-8-OH-G/dG antibodies (QED Bioscience, Inc.) and then with goat anti-mouse HRP-conjugated secondary antibody (Santa Cruz Biotechnology), and signals were detected, using an ECL kit (Amersham). In addition, RNA was digested with nuclease P1 (Sigma, US Biological) and alkaline phosphatase (Promega) and analyzed for 8-OH-G content using RNA Damage Kit (Cell Biolabs, Inc.), following manufacturer's protocols.
GO continuously generates H2O2 extracellularly, in the presence of glucose and can be used to mimic inflammation and continued oxidative stress seen during chronic hepatitis C. […] An in vitro-oxidized control Huh7 RNA (incubated with H2O2+cytochrome C) was used as a positive control (FIG. 3A). […] NiCl2 was used as a positive control genotoxin in FIGS. 3B and 3C.

Compound | amino acid changes, fold higher than the control group ([1]; 48 hrs) [fold] | nucleotide changes, fold higher than the control group ([1]; 48 hrs) | dn/ds ratio ([1]; 48 hrs) | Percentage of sites showing positive selection ([1]; 48 hrs) [%] | mutation frequency, nucleotide changes per site [1] | amino acid changes per codon [1] | Ts/Tv ratio ([1]; 48 hrs, control approximately 2.7) | location of synonymous and nonsynonymous mutations in NS5A ([1]; SNAP plot against codons, 48 hrs) | 8-OHG in Huh7 cells [2]
CCCCS(=N)(=O)CCC(N)C(=O)O [BSO, L-buthionine-S,R-sulfoximine] | ~12 | about 4 fold | 0.59 | 6.42 | 6.74×10^−4 nucleotide changes per site | 1.67×10^−3 amino acid changes per codon | – | – | –
CCO [Ethanol, ethanol] | ~24 | ~8 fold | 0.76 | 5.14 | 1.33×10^−3 nucleotide changes per site | 3.05×10^−3 amino acid changes per codon | 5.7 | clustered in the C-terminal half of NS5A | elevated
